Test results as given in patent US6214340A, “Physiologically active substance sulphostin, process for producing the same, and use thereof” (Zaidan Hojin Biseibutsu Kagaku Kenkyu Kai, priority 1997, dated 2001).

Assay: Solubility (physicochemical properties)
Source text: The physicochemical properties of the thus obtained physiologically active substance sulphostin are shown below.
4) Solubility: soluble in water and insoluble in lower alcohol, acetone, ethyl acetate, hexane and petroleum ether.

Structure (SMILES): NC1CCCN(P(N)(=O)NS(=O)(=O)O)C1=O (centres unmarked) [sulphostin]
- Solubility (in lower alcohol, acetone, ethyl acetate, hexane and petroleum ether): insoluble
- Solubility (in water): soluble
